One experiment has as its target T1, Human CARM1 (PRMT4) (Homo sapiens, UniProt Q86X55).
T1 construct: Flag-CARM1-His was eluted with 200 ug/ml FLAG peptide in buffer A; made in house; host or cells: HEK 293F cells infected with recombinant baculovirus (pFastBacMam)
T1 sequence (Q86X55 1-585 isoform Q86X55-1): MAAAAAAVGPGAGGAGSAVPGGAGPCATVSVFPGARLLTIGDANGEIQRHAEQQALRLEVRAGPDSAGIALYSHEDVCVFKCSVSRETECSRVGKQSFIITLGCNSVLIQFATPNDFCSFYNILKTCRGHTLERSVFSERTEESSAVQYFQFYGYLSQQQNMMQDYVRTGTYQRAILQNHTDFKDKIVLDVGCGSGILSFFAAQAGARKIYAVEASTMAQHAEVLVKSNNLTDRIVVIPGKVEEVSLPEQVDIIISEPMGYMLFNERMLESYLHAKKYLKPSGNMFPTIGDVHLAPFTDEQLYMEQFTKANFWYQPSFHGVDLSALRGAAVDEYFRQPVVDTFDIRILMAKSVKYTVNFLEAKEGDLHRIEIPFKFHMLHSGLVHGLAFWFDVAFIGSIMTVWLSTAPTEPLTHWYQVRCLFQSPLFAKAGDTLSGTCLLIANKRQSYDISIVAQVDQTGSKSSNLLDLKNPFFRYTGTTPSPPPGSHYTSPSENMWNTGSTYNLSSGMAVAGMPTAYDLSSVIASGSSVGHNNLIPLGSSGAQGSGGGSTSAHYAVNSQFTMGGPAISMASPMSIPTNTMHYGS
In words: CARM1 enzyme assay on peptide substrates (3H-SAM Flashplate). The conditions noted are these: Biochemical assay; CARM1 0.25 nM, 3H-SAM 30 nM, peptide 250 nM; read-out: Biochem IC50.

In experiment [1] the test system is asymmetric di-methyl PABP1 in RKO cells. In words: RKO methylation assay: In Cell Western (ICW) for asymmetric di-methyl PABP1 (PABP1me2a). The following applies: Homo sapiens, RKO, 48 h, Cellular-based (PABP1me2a) ICW (In Cell Western) assay. Put shortly: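 In-cell western on compound-exposed RKO cells (48 hours): asymmetric di-methyl PABP1 detected by antibody at 800 nm, DNA content by DRAQ5 at 700 nm. Percent inhibition from signal ratios against DMSO (minimum) and 20 μM reference compound (maximum) wells; IC50 curves fitted from triplicates.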

The text below walks through data of patent US20170305922A1, “CARM1 INHIBITORS AND USES THEREOF” (Epizyme, Inc., priority 2014, published 2017).

One may read the IC50 as the concentration that inhibits the measured activity by half.

Structures are written as SMILES.

On to `CNC[C@@H](O)COc1ccc(Cl)c(-c2nc(-c3c(Br)cnn3C)c(C)c(N3CC4=C(CN(C(=O)OC)C4)C3)n2)c1` [Example 336], for which the concentration for half-maximal inhibition (IC50) was found to be 3.03 nM on Human CARM1 (PRMT4) and 32.1 nM in experiment [1].

Take `CNC[C@@H](O)COc1ccc(Cl)c(-c2nc(-c3c(C)noc3C)c(C)c(N3CC4(CCCN(CC(F)F)C4)C3)n2)c1` [Example 337]: the results for the concentration for half-maximal inhibition (IC50) (on Human CARM1 (PRMT4); in experiment [1]) were 4.98 nM and 60 nM, respectively.

In the case of `CNC[C@@H](O)COc1ccc(Cl)c(-c2nc(-c3c(C)noc3C)c(C)c(N3CC4(CCN(C(=O)OC)CC4)C3)n2)c1Cl` [Example 338], the IC50 worked out at 31.1 nM on Human CARM1 (PRMT4) and 1820 nM in experiment [1].

Take `CNC[C@@H](O)COc1ccc(Cl)c(-c2nc(-c3c(Cl)cnn3C)c(C)c(N3Cc4cnc(OC)nc4C3)n2)c1` [Example 339]: the half-inhibitory concentration (IC50) came out at 2.54 nM at Human CARM1 (PRMT4) and 65.4 nM in experiment [1].

Take `CNC[C@@H](O)COc1ccc(Cl)c(-c2nc(-c3c(Cl)cnn3C)c(C)c(N3Cc4cnc(N5CCC5)nc4C3)n2)c1` [Example 340]: the concentration for half-maximal inhibition (IC50) at Human CARM1 (PRMT4) came to 2 nM; in experiment [1] it was 17.5 nM.

As to `CNC[C@@H](O)COc1ccc(Cl)c(-c2nc(-c3c(Cl)cnn3C)c(C)c(N3Cc4nccnc4C3)n2)c1` [Example 341], the 50% inhibitory concentration (IC50) worked out at 2.7 nM on Human CARM1 (PRMT4) and 184 nM in experiment [1].

Regarding `CNC[C@@H](O)COc1ccc(Cl)c(-c2nc(-c3c(Cl)cnn3C)c(C)c(N3Cc4cnn(C)c4C3)n2)c1` [Example 342], the half-maximal inhibitory concentration (IC50) on Human CARM1 (PRMT4) was found to be 2.74 nM; in experiment [1], 123 nM.

`CNC[C@@H](O)COc1ccc(Cl)c(-c2nc(-c3c(Cl)cnn3C)c(C)c(N3Cc4cncnc4C3)n2)c1` [Example 344]: the values for the IC50 (at Human CARM1 (PRMT4); in experiment [1]) were 12.8 nM and 713 nM, respectively.

Consider `CNC[C@@H](O)COc1ccc(Cl)c(-c2nc(-c3c(C)c(C#N)nn3C)c(C)c(N3CC4(CCN(C(=O)OC)CC4)C3)n2)c1` [Example 345], for which the figures for the half-maximal inhibitory concentration (IC50) (at Human CARM1 (PRMT4); in experiment [1]) were 5.66 nM and 262 nM, respectively.

For the compound `CNC[C@@H](O)COc1ccc(Cl)c(-c2nc(-c3c(C)c(C#N)nn3C)c(C)c(N3Cc4cncnc4C3)n2)c1` [Example 346], the IC50 at Human CARM1 (PRMT4) is 2.31 nM; in experiment [1], 140 nM.

Consider `CNC[C@@H](O)COc1cccc(-c2nc(-c3c(C#N)cnn3C)c(C)c(N3Cc4cccnc4C3)n2)c1` [Example 347], for which the IC50 on Human CARM1 (PRMT4) is 28.2 nM; in experiment [1], above 2000 nM.

With `CNC[C@@H](O)COc1ccc(Cl)c(-c2nc(-c3c(C#N)cnn3C)c(C)c(N3Cc4cccnc4C3)n2)c1` [Example 348], the IC50 on Human CARM1 (PRMT4) was found to be 5.67 nM; in experiment [1], 1670 nM.

Regarding `CNC[C@@H](O)COc1ccc(Cl)c(-c2nc(-c3c(C#N)cnn3C)c(C)c(N3Cc4cncnc4C3)n2)c1` [Example 349], the IC50 at Human CARM1 (PRMT4) was determined as 7.81 nM; in experiment [1], 3110 nM.

As for `CNC[C@@H](O)COc1cccc(-c2nc(-c3c(C)noc3C)c(C)c(N3CC4(CCN(C(=O)OC)CC4)C3)n2)c1Cl` [Example 350], the results for the concentration for half-maximal inhibition (IC50) (on Human CARM1 (PRMT4); in experiment [1]) were 37.2 nM and 7200 nM, respectively.
